Assay results published in US20070105789A1, “Combinatorial chemotherapy treatment using Na+/K+ ATPase inhibitors” (priority 2004, published 2007).
Values after ≈ are worked out from the molar mass of the structure shown. Read-outs that look alike come from different tables or passages of the source.

Legend:
A549 Sentinel Line = experiment: Sentinel Line reporter assay (beta-gal, FACS); format: cell-based, human; details: A549 sentinel line, with Gemcitabine, 40 hrs
Method: The expression level of beta-galactosidase gene in sentinel lines was determined by using a fluorescent substrate fluorescein di-B-D-Galactopyranside (FDG, Marker Gene Tech, #M0250) introduced into cells by hypotonic shock. Cleavage by beta-galactosidase results in the production of free fluorescein, which is unable to cross the plasma membrane and is trapped inside the beta-gal positive cells. Briefly, the cells to be analyzed are trypsinized, and resuspended in PBS containing 2 mM FDG (diluted from a 10 mM stock prepared in 8:1:1 mixture of water: ethanol: DMSO). The cells were then shocked for 4 minutes at 37° C. and transferred to FACS tubes containing cold 1×PBS on ice. Samples were kept on ice for 30 minutes and analyzed by FACS in FLI channel.
Sentinel Line cells with beta-galactosidase reporter gene were plated at 1×10^5 cells/10 cm dish. […] After 40 hrs, the cells were trypsinized and the expression level of reporter gene was determined by FDG loading.
The reporter activity was measured by FACS analysis.

VEGF = VEGF secretion in tumor cells; format: cell-based; details: FIG. 8
HIF-1α [1] = experiment: HIF-1α induced under normoxia by PHD inhibitor L-mimosone, Hep3B Western blot; format: cell-based, human; details: 200 μM L-mimosone, 18 h
Method: Abundance of HIF-1α and β-actin was determined by western blotting.

[2] = tested on: Panc-1 human pancreatic xenograft; experiment: Panc-1 human pancreatic tumor xenograft in nude mice; format: in vivo; details: Panc-1; BNC-4 15 mg/ml s.c. pump; Gemcitabine 40 mg/kg q3d×4
From the text: (§1) Female nude mice (nu/nu) between 5 and 6 weeks of age weighing approximately 20 g were implanted subcutaneously (s.c.) by trocar with fragments of human tumors harvested from s.c. grown tumors in nude mice hosts. […] Each group contains 8-10 mice, each of which was ear tagged and followed throughout the experiment.
(§2) The administration of drugs or controls began the day the animals were pair-matched (Day 1). […] Mice were weighed and tumor measurements were obtained using calipers twice weekly, starting Day 1. These tumor measurements were converted to mg tumor weight by standard formula, (W^2×L)/2. The experiment is terminated when the control group tumor size reached an average of about 1 gram. Upon termination, the mice were weighed, sacrificed and their tumors excised. The tumors were weighed and the mean tumor weight per group was calculated.
(§3) The control animals received pumps containing vehicle (50% DMSO in DMEM). The mice treated with standard chemotherapy agent received intra-peritoneal injections of Gemcitabine at 40 mg/kg every 3 days for 4 treatments (q3d×4). Each data point represent average tumor weight (n=8) and error bars indicate SEM.
as §3

[3] = tested on: Caki-1 human renal cancer xenograft; format: in vivo, nude mice; details: Caki-1
From the text: as §1, §2

Na+/K+-ATPase [4] = biological target: T1, Na+/K+-ATPase (Canis lupus familiaris, UniProt P50997); experiment: Na+/K+-ATPase inhibition; format: biochemical, dog; details: read-out: IC50 for inhibition of Na+/K+-ATPase
T1 construct: enzyme preparation from dog kidney (Sigma); purchased Sigma; host or cells: dog kidney tissue
Method: (§4) Anti-prolerafitive IC50 values were determined by MTS assay using an A549 cell line. Na^+/K^+-ATPase inhibition IC50 values were obtained using enzyme preparation from dog kidney (Sigma).

A549 cell line = experiment: anti-proliferation MTS assay in A549 cell line; format: cell-based; details: Homo sapiens
Method: as §4

HIF-1α [5] = experiment: Western blot using anti-HIF-1α antibody (Example XVI); format: cell-based
[6] = tested on: panel of 10 cancer cell lines; experiment: cytotoxicity against a panel of 10 cancer cell lines; format: cell-based; details: read-out: median IC50
[7] = effective plasma concentration and effective oral dose in patients; format: in vivo; details: Homo sapiens, cancer indications, 1.5 to 3 times that of cardiac indications, read-out: median effective concentration (EC50) of free drug
[8] = steady state serum level of about 50 ng/mL, xenograft nude mouse model
Na+/K+-ATPase [9] = details: Erdmann E 1978; cited from earlier work
[10] = cited from earlier work
[11] = at therapeutic plasma level; cited from earlier work
[12] = cited from earlier work; remark: listed apart in the source
rats = details: cited from earlier work
cats = details: cited from earlier work
[13] = 12 healthy individuals, 2×0.5 mg for 8 days, radio-immunoassay

## C[C@@H]1OC(OC2C=C3CCC4C(CC[C@]5(C)[C@@H](c6ccc(=O)oc6)CC[C@]45O)[C@@]3(C)CC2)[C@H](O)[C@H](O)[C@H]1O (stereo partly drawn) [BNC-4, proscillaridin]
A549 Sentinel Line
  effect on Gemcitabine-induced reporter activity: significantly shift the reporter activity to the left
VEGF
  secretion of VEGF in tumor cells: directly or indirectly inhibits
HIF-1α [1]
  HIF-1α accumulation induced by L-mimosone: eliminated HIF-1α accumulation by L-mimosone
[2]
  TGI: about 87%
[3]; BNC-4 5 mg/ml s.c. pump
  TGI: 43%
[3]; BNC-4 15 mg/ml s.c. pump
  TGI: 73%
Na+/K+-ATPase [4]
  IC50: ~0.13 µM
A549 cell line
  IC50: ~0.0021 µM
HIF-1α [5]; 0.1 μM
  HIF-1α expression: completely inhibits
HIF-1α [5]; 1 μM
  HIF-1α expression: completely inhibits
[6]
  IC50: ~0.023 µM
[7]
  EC50: 1.2 to 2.5 ng/mL (≈ 2.26 to 4.71 nM)
[8]
  TGI (tumor growth inhibition): greater than 60%
Na+/K+-ATPase [9]
  order of Na+/K+-ATPase-inhibition: Ouabain<Digoxin<Proscillaridin
[10]; [13]
  Tmax: 48 ± 30 min
  median AUC: 0.385 ± 0.0436 µg·h/mL
  median Cmax: 0.0235 ± 0.0026 µg/mL
[10]; according to the literature
  plasma half-life in human: about 40 hours
[10]; after oral administration
  measurable unconjugated drug as share of the administered quantity: 7%
[10]; cardiac patients
  median plasma half-life (T1/2): up to 49 hours
[10]; dosage form with acid-resistant (enteric) coating
  absolute bioavailability: about 35%
[10]; in vivo
  Volume-of-Distribution (VD): 562 L
  daily clearance: ~35%
  drug and its metabolites excreted by the bile: Greater than 99%
  total level of metabolism: > 95%
  unchanged drug excreted by the kidneys: less than 1%
[10]; oral
  time of second, longer-lasting blood level peak: about 1 hour
  time of third plasma peak after dosing: about 10 hours
[10]; patients taking antacids
  higher absorption with decreased stomach acid production: up to 60%
[10]; simple oral formulations
  oral absorption, accepted median: about 20%
[11]
  bound to plasma protein: about 85%
[12]; 0.25 to 0.5 mg/d i.v. for four days before surgery, 50 patients
  tolerability in cancer patients: well tolerated by all cancer patients with no appearance of either gastrointestinal or cardiac side effects
[12]; 47 clinical studies, 3740 patients
  patients exhibiting side-effects: about 6.3%
[12]; 47 clinical studies
  reported cases where therapy could be resumed after a brief hiatus: > 95%
[12]; 1067 patients observed for up to 3 years
  patients taken off the treatment for negative side effects: 0.7%
[12]; cardiac patients
  well tolerated dose: up to 1.5 mg/d
[12]; cardiac patients, listed as Proscillaridin A
  well tolerated dose: ~1.5 mg/day
[12]; cardiologically-normal individuals
  well tolerated dose: up to 3.5 mg/d
[12]; healthy individuals
  dose producing typical intoxication symptoms: above 4 mg p.o./d
[12]; healthy volunteers, 1.5 mg daily for 20 days
  side effects: no negative side effects
[12]; nausea, seasickness, headache, vomiting, stomach cramps, diarrhea
  average level of side effects in clinical reports: 5%
[12]; review of a total of 3740 patients
  long-term or late-appearing chronic toxicity: none of these cases noted any long-term or late-appearing chronic toxicity
rats; adult
  LD50 p.o.: 0.25 mg/kg
rats; young animals (female)
  LD50 p.o.: 76 mg/kg
cats
  intravenous toxicity: 0.193 mg/kg
